# Source: US20230085307A1, “PYRIDAZINONE COMPOUND AND HERBICIDE” (NISSAN CHEMICAL CORPORATION, priority 2019, published 2023)
# Tests used:
# late watergrass = test: Test Example 1: herbicidal activity, application before weed generation under submerged conditions (Table 16, symbol A); assay type: in vivo, late watergrass (Echinochloa oryzicola); conditions: amount of applied herbicide 320 g/ha
# Procedure, shortened: (§1)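 Submerged Wagner pots (alluvial soil, 4 cm water) sown with weed seeds and planted with 2.5-leaf rice seedlings; emulsifiable concentrate diluted in water applied to water surface on sowing day. Held in greenhouse at 25-30 °C; injury scored 0-5 by herbicidal rate after three weeks.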
# Japanese bulrush = test: Test Example 1: herbicidal activity, application before weed generation under submerged conditions (Table 16, symbol B); assay type: in vivo, Japanese bulrush (Schoenoplectus juncoides); conditions: amount of applied herbicide 320 g/ha
# Procedure, shortened: as §1
# oval-leafed pondweed = test: Test Example 1: herbicidal activity, application before weed generation under submerged conditions (Table 16, symbol C); assay type: in vivo, oval-leafed pondweed (Monochoria vaginalis); conditions: amount of applied herbicide 320 g/ha
# Procedure, shortened: as §1
# barnyard grass [1] = test: Test Example 3: herbicidal effect by foliage application, Wagner pot (Table 18, symbol H); assay type: in vivo, barnyard grass (Echinochloa crus-galli); conditions: 320 g/ha
# Procedure, shortened: (§2)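 Plants were sown in alluvial soil held under 0.1–0.5 cm standing water and grown 14 days in a greenhouse at 25–30 °C. An emulsifiable formulation, water-diluted to the set dose, was then sprayed onto the foliage, and effects were scored three weeks later using previously defined criteria.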
# Chinese sprangletop = test: Test Example 3: herbicidal effect by foliage application, Wagner pot (Table 18, symbol D); assay type: in vivo, chinese sprangletop (Leptochloa chinensis); conditions: 320 g/ha
# Procedure, shortened: as §2
# rice flat sedge = test: Test Example 3: herbicidal effect by foliage application, Wagner pot (Table 18, symbol E); assay type: in vivo, rice flat sedge (Cyperus iria); conditions: 320 g/ha
# Procedure, shortened: as §2
# southern crabgrass = test: Test Example 5: herbicidal effect by foliage application, plastic box (Table 20, symbol F); assay type: in vivo, southern crabgrass (Digitaria ciliaris); conditions: 320 g/ha, foliage application after 14-day growth, evaluated three weeks after application
# Procedure, shortened: (§3)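 Plants sown in sterilized diluvial soil and grown 14 days in a greenhouse at 25° C to 30° C, then sprayed on the foliage with the compound's emulsion diluted in water to a predetermined herbicide amount. Injury to weeds and crops scored three weeks after application on a visual rating scale.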
# green foxtail = test: Test Example 5: herbicidal effect by foliage application, plastic box (Table 20, symbol G); assay type: in vivo, green foxtail (Setaria viridis); conditions: 320 g/ha, foliage application after 14-day growth, evaluated three weeks after application
# Procedure, shortened: as §3
# barnyard grass [2] = test: Test Example 5: herbicidal effect by foliage application, plastic box (Table 20, symbol H); assay type: in vivo, barnyard grass (Echinochloa crus-galli); conditions: 320 g/ha, foliage application after 14-day growth, evaluated three weeks after application
# Procedure, shortened: as §3
# wild oat = test: Test Example 5: herbicidal effect by foliage application, plastic box (Table 20, symbol I); assay type: in vivo, wild oat (Avena fatua); conditions: 320 g/ha, foliage application after 14-day growth, evaluated three weeks after application
# Procedure, shortened: as §3
# blackgrass = test: Test Example 5: herbicidal effect by foliage application, plastic box (Table 20, symbol J); assay type: in vivo, blackgrass (Alopecurus myosuroides); conditions: 320 g/ha, foliage application after 14-day growth, evaluated three weeks after application
# Procedure, shortened: as §3
# Italian ryegrass = test: Test Example 5: herbicidal effect by foliage application, plastic box (Table 20, symbol K); assay type: in vivo, Italian ryegrass (Lolium multiflorum); conditions: 320 g/ha, foliage application after 14-day growth, evaluated three weeks after application
# Procedure, shortened: as §3
# windgrass = test: Test Example 5: herbicidal effect by foliage application, plastic box (Table 20, symbol L); assay type: in vivo, windgrass (Apera spica-venti); conditions: 320 g/ha, foliage application after 14-day growth, evaluated three weeks after application
# Procedure, shortened: as §3
# velvetleaf = test: Test Example 5: herbicidal effect by foliage application, plastic box (Table 20, symbol M); assay type: in vivo, velvetleaf (Abutilon theophrasti); conditions: 320 g/ha, foliage application after 14-day growth, evaluated three weeks after application
# Procedure, shortened: as §3
# redroot pigweed = test: Test Example 5: herbicidal effect by foliage application, plastic box (Table 20, symbol N); assay type: in vivo, redroot pigweed (Amaranthus retroflexus); conditions: 320 g/ha, foliage application after 14-day growth, evaluated three weeks after application
# Procedure, shortened: as §3
# lambsquarters = test: Test Example 5: herbicidal effect by foliage application, plastic box (Table 20, symbol O); assay type: in vivo, lambsquarters (Chenopodium album); conditions: 320 g/ha, foliage application after 14-day growth, evaluated three weeks after application
# Procedure, shortened: as §3
# chickweed = test: Test Example 5: herbicidal effect by foliage application, plastic box (Table 20, symbol P); assay type: in vivo, common chickweed (Stellaria media); conditions: 320 g/ha, foliage application after 14-day growth, evaluated three weeks after application
# Procedure, shortened: as §3
# persian speedwell = test: Test Example 5: herbicidal effect by foliage application, plastic box (Table 20, symbol R); assay type: in vivo, Persian speedwell (Veronica persica); conditions: 320 g/ha, foliage application after 14-day growth, evaluated three weeks after application
# Procedure, shortened: as §3
SMILES,"Herbicidal effect, A: late watergrass (late watergrass)","Herbicidal effect, B: Japanese bulrush (Japanese bulrush)","Herbicidal effect, C: oval-leafed pondweed (oval-leafed pondweed)",herbicidal effect on barnyard grass (H) (barnyard grass [1]),herbicidal effect on Chinese sprangletop (D) (Chinese sprangletop),herbicidal effect on rice flat sedge (E) (rice flat sedge),herbicidal effect on F: southern crabgrass (evaluation grade 0-5) (southern crabgrass),herbicidal effect on G: green foxtail (evaluation grade 0-5) (green foxtail),herbicidal effect on H: barnyard grass (evaluation grade 0-5) (barnyard grass [2]),herbicidal effect on I: wild oat (evaluation grade 0-5) (wild oat),herbicidal effect on J: blackgrass (evaluation grade 0-5) (blackgrass),herbicidal effect on K: Italian ryegrass (evaluation grade 0-5) (Italian ryegrass),herbicidal effect on L: windgrass (evaluation grade 0-5) (windgrass),herbicidal effect on M: velvetleaf (evaluation grade 0-5) (velvetleaf),herbicidal effect on N: redroot pigweed (evaluation grade 0-5) (redroot pigweed),herbicidal effect on O: lambsquarters (evaluation grade 0-5) (lambsquarters),herbicidal effect on P: chickweed (evaluation grade 0-5) (chickweed),herbicidal effect on R: persian speedwell (evaluation grade 0-5) (persian speedwell)
CCc1ccccc1-c1sc2c(Cl)cccc2c1-c1c(O)c(C)nn(C)c1=O [4-062],0 (Herbicidal rate of 5% or less (almost no effect)),2 (Herbicidal rate of 20% or more and less than 40%),0 (Herbicidal rate of 5% or less (almost no effect)),4 (Herbicidal rate of 70% or more and less than 90%),4 (Herbicidal rate of 70% or more and less than 90%),3 (Herbicidal rate of 40% or more and less than 70%),1 (Herbicidal rate of 5% or more and less than 20%),3 (Herbicidal rate of 40% or more and less than 70%),1 (Herbicidal rate of 5% or more and less than 20%),0 (Herbicidal rate of 5% or less (almost no effect)),0 (Herbicidal rate of 5% or less (almost no effect)),0 (Herbicidal rate of 5% or less (almost no effect)),0 (Herbicidal rate of 5% or less (almost no effect)),2 (Herbicidal rate of 20% or more and less than 40%),3 (Herbicidal rate of 40% or more and less than 70%),0 (Herbicidal rate of 5% or less (almost no effect)),3 (Herbicidal rate of 40% or more and less than 70%),3 (Herbicidal rate of 40% or more and less than 70%)
CCCC(=O)Oc1c(C)nn(C)c(=O)c1-c1c(-c2cccc(OC)c2)sc2c(Cl)cccc12 [4-065],4 (Herbicidal rate of 70% or more and less than 90%),0 (Herbicidal rate of 5% or less (almost no effect)),1 (Herbicidal rate of 5% or more and less than 20%),4 (Herbicidal rate of 70% or more and less than 90%),3 (Herbicidal rate of 40% or more and less than 70%),3 (Herbicidal rate of 40% or more and less than 70%),0 (Herbicidal rate of 5% or less (almost no effect)),0 (Herbicidal rate of 5% or less (almost no effect)),0 (Herbicidal rate of 5% or less (almost no effect)),0 (Herbicidal rate of 5% or less (almost no effect)),0 (Herbicidal rate of 5% or less (almost no effect)),0 (Herbicidal rate of 5% or less (almost no effect)),0 (Herbicidal rate of 5% or less (almost no effect)),1 (Herbicidal rate of 5% or more and less than 20%),5 (Herbicidal rate of 90% or more (almost completely withered)),2 (Herbicidal rate of 20% or more and less than 40%),3 (Herbicidal rate of 40% or more and less than 70%),3 (Herbicidal rate of 40% or more and less than 70%)
